The subject of data set [1] is Liver cytosol. Briefly: Drug metabolism in human liver cytosol treated with 20 uM assessed as compound formation in presence of NADPH generating system by LC-MS/MS/FSA method. The format is ADME.
The test system of data set [2] is Plasma. The data set can be described thus: Drug metabolism in human plasma treated with [14C]boceprevir assessed as ratio of drug level by LC-MS/MS method relative to boceprevir. The format is ADME, cell-free.
Data set [3] has as its system Liver cytosol. Briefly: Drug metabolism in human liver cytosol treated with 20 uM [14C]SCH 534129 assessed as 1 mM ibuprofen-mediated inhibition of metabolite formation LC-MS/MS/FSA method. More on the design: interact cpd dose 1 mM. The format is ADME, tissue-based.
The nature of data set [4]: Retention time of the compound by LC-MS/MS method. The format is physicochemical.
The test system of data set [5] is Liver cytosol. Briefly: Drug metabolism in human liver cytosol treated with 20 uM [14C]SCH 534129 assessed as 100 uM diazepam-mediated inhibition of metabolite formation LC-MS/MS/FSA method. The format is ADME, tissue-based. Set-up: interact cpd dose 100 uM.
Data set [6] can be described thus: Drug metabolism in human liver mitochondria treated with 20 uM assessed as compound formation in presence of NADPH generating system by LC-MS/MS/FSA method. The format is ADME.
A short description of data set [7]: Drug metabolism in human liver S9 fraction treated with 20 uM assessed as compound formation in presence of NADPH generating system by LC-MS/MS/FSA method. The format is ADME, subcellular.

The structures appear in SMILES notation.

For the compound `CC(C)(C)NC(=O)N[C@H](C(=O)N1C[C@H]2[C@@H]([C@H]1C(=O)N[C@H](CC1CCC1)[C@@H](O)C(N)=O)C2(C)C)C(C)(C)C`, the Compound recovery in data set [1] was 32%; in data set [2] it was “>= 50%”; in data set [6], 32%; in data set [7] it was 32%. Besides, the “inhibition (INH)” value in data set [3] is on record as 63%; in data set [5], 78%. The Retention_time in data set [4] is recorded as 43.1 min.
